The assay is described as follows: Inhibition of recombinant human IDO1 expressed in yeast assessed as yeast growth restoration after 40 to 45 hrs in presence of galactose.

The term EC50 denotes the concentration that produces a half-maximal response. As for `CN1CCN(C(CO)Cc2ccccc2)CC1` (stereo unspecified), the EC50 came to 2000 nM.

Source of the values: BindingDB's records for doi:10.1016/j.ejmech.2016.12.029 (University of Auckland, 2017).
